20 molecules from PubChem BioAssay (NCI) can be followed below.

SMILES strings stand for the structures.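 How tested: cells in 96-well plates exposed to compound for 48 hours at five concentrations. At the TGI there is no net growth.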

Assay in all cases: NCI tumour cell line growth inhibition, 48 h
Test [1] relates to HOP-92 NSCLC.
The test system of test [2] is IGROV1 ovarian.
Test [3] deals with MCF7 breast.
In test [4] the test system is MDA-MB-231 breast.
For test [5], the system named is MDA-N.
Test [6] relates to OVCAR-5 ovarian.
For test [7], the system named is RPMI-8226 leukemia.
Test [8] has as its system SK-MEL-28 melanoma.
Test [9] relates to SK-MEL-5 melanoma.
For test [10], the system named is SNB-19 CNS.

With `Brc1cccc(C2(CCCC3(c4cccc(Br)n4)OCCO3)OCCO2)n1`, the TGI in test [1], in test [2], in [3], in test [4], in test [5] and in test [6] was more than 100 µM each time. Also, the TGI in [7], in test [8], in test [9] and in test [10] was more than 100 µM each time.

As for `O=C(Nc1ccc2ccccc2c1)Nn1cnnc1`, the TGI in [1], in test [2], in test [3], in [4], in test [5] and in test [6] was more than 100 µM throughout. Besides, the TGI in test [7], in test [8], in test [9] and in test [10] was more than 100 µM throughout.

For `Cc1nc2ccccc2c(=O)n1NC(=O)Cc1ccccc1`, the TGI in test [1], in test [2], in test [3], in test [4], in test [5] and in test [6] was more than 100 µM each time. Further, the TGI in test [7], in [8], in [9] and in test [10] was more than 100 µM throughout.

Consider `Cc1cccc2c(N)c3cccc(C(=O)NCC[N+](C)(C)Cc4sc(N5CCOCC5)nc4[N+](=O)[O-])c3nc12`, for which the TGI was more than 100 µM in test [1]; more than 100 µM in [2]; 13.5 µM in test [3]; 13.1 µM in test [4]; 21.8 µM in [5]; 16.4 µM in test [6]. The TGI in [7], in [8], in [9] and in test [10] was more than 100 µM each time.

Consider `CC(=O)NC1C(OCc2ccccc2)OC(CO)C(O)C1OCC(=O)NC(C)C(=O)NC(CCC(=O)NCCCCCC(=O)Nc1ccc2c(c1)CN1C(=O)c3ccccc3C1=N2)C(N)=O` (stereo unspecified), for which the TGI in test [1] is 90.9 µM; in test [2], more than 100 µM; in test [3], more than 100 µM; in [4], more than 100 µM; in test [5], more than 100 µM; in test [6], more than 100 µM. The TGI in [7], in test [8], in [9] and in test [10] was more than 100 µM throughout.

Regarding `CC(C)OC(=O)c1ccc(CCC2=CC(=O)C(Br)=CC2=O)cc1`, the TGI came to 24.9 µM in test [1]; 27.8 µM in [2]; 35.2 µM in test [3]; 31.1 µM in test [4]; 30.9 µM in [5]; 42.1 µM in test [6]. Also, the TGI turned out to be 43.3 µM in test [7], 32.7 µM in test [8], 25.7 µM in test [9] and 29.2 µM in [10].

For the molecule `CN(N)C(=O)NCCCl`, the TGI in [1], in test [2], in test [3], in [4], in test [5] and in test [6] was more than 100 µM throughout. Further, the TGI in test [7], in test [8], in [9] and in test [10] was more than 100 µM each time.

In the case of `[N-]=[N+]=C1CNC(=O)NC1=O`, the TGI in [1], in test [2], in test [3], in test [4], in test [5] and in test [6] was more than 100 µM each time. In addition, the TGI in test [7], in [8], in test [9] and in test [10] was more than 100 µM each time.

As to `Cc1ccccc1NC(=S)N=Nc1c(O)[nH]c2ccccc12`, the TGI in [1], in test [2], in test [3], in test [4], in [5] and in [6] was more than 100 µM each time. Moreover, the TGI in [7] is more than 100 µM; in test [8], 36.7 µM; in test [9], more than 100 µM; in test [10], more than 100 µM.

As to `O=[N+]([O-])c1cccc2nc3ccccc3c(NCCC[N+]3([O-])CCCCC3)c12`, the TGI in test [1] came to 0.746 µM; in test [2] it was 6.33 µM; in [3], 1.99 µM; in test [4], 1.16 µM; in test [5], 0.56 µM; in test [6] it was 2.36 µM. Also, the TGI in test [7] was 10.5 µM; in test [8] it was 5.11 µM; in [9], 1.35 µM; in test [10], 9.18 µM.

As to `C=C1c2nc3ccccc3n2C=C(c2ccc(Cl)cc2)N1c1ccccc1`, the TGI in test [1] was more than 100 µM; in test [2], 22.1 µM; in test [3], 25.7 µM; in test [4], more than 100 µM; in test [5], more than 100 µM; in test [6] it was more than 100 µM. Besides, the TGI in test [7] is more than 100 µM; in test [8], 24 µM; in test [9], more than 100 µM; in test [10], 19.6 µM.

Turning to `CC[C@@]1(O)C(=O)OCc2c1cc1n(c2=O)Cc2c-1nc1ccccc1c2/C=N\NC(=O)C(N)CS` (stereo partly specified), the TGI in [1] was more than 57.1 µM; in test [2] it was more than 85.3 µM; in test [3], more than 100 µM; in test [4] it was more than 100 µM; in test [5] it was more than 100 µM; in test [6] it was more than 100 µM. In addition, the TGI in test [7] is more than 100 µM; in test [8], more than 100 µM; in [9], 3.9 µM; in test [10], more than 31.6 µM.

Regarding `O=C1c2ccccc2C2(c3ccc(Cl)cc3)NCc3ccccc3CN12` (stereo unspecified), the TGI was 56 µM in [1]; 94.7 µM in test [2]; 40 µM in [3]; more than 100 µM in test [4]; more than 100 µM in [5]; 58.1 µM in test [6]. Moreover, the TGI is 75.2 µM in [7], more than 100 µM in test [8], 29.5 µM in [9] and 51.6 µM in [10].

Turning to `C=C1C(=O)[C@]23[C@H](O)[C@H]1CC[C@H]2[C@@]12CO[C@@]3(O)C[C@@H]1C(C)(C)CC[C@@H]2O`, the TGI in test [1] was more than 25 µM; in [2] it was 20.9 µM; in test [3] it was 13.1 µM; in test [4] it was 17.9 µM; in test [5] it was more than 25 µM; in test [6], more than 25 µM. In addition, the TGI is more than 25 µM in test [7], 22.3 µM in test [8], more than 25 µM in [9] and more than 25 µM in [10].

`O=c1c2c([nH]c3cc4c(cc13)OCO4)-c1ccccc1CCC2`: the TGI in test [1], in [2], in test [3], in test [4], in test [5] and in [6] was more than 50 µM in each case. The TGI in [7], in [8], in test [9] and in [10] was more than 50 µM each time.

Take `COc1cc2c3c(cc(Cl)nc3c1OC)C(O)(CC(C)=O)C(=O)N2` (stereo unspecified): the TGI was 34.3 µM in test [1]; 36.6 µM in test [2]; 35.9 µM in [3]; 33 µM in test [4]; 31.1 µM in test [5]; more than 56.4 µM in test [6]. The TGI in test [7] is more than 78.6 µM; in test [8], more than 60.7 µM; in test [9], more than 56 µM; in [10], more than 54.7 µM.

Regarding `CCOC(=O)/C=C(/C(=O)OCC)n1c(=O)c(C)cn(C2CC(N=[N+]=[N-])C(CO)O2)c1=O` (stereo unspecified), the TGI in test [1] is 76.6 µM; in [2], more than 100 µM; in [3], 50.2 µM; in [4] it was 46 µM; in [5] it was more than 100 µM; in test [6] it was more than 100 µM. The TGI in test [7] was 49 µM; in test [8] it was 84.6 µM; in test [10] it was more than 100 µM.

As for `CC(NC(=O)C(C)C(=O)NCc1ccc(C(F)(F)F)cc1)C(N)=O` (stereo unspecified), the TGI in test [1], in test [2], in test [3], in test [4], in test [5] and in test [6] was more than 100 µM in each case. The TGI in test [7], in test [9] and in test [10] was more than 100 µM each time.

With `Cc1ccc(O)c(Cc2nc3ccccc3nc2-c2cccc(Br)c2)c1`, the TGI in test [1], in test [2], in test [3], in test [4], in [5] and in test [6] was more than 100 µM each time. The TGI was more than 100 µM in test [7], more than 100 µM in [9] and 69.7 µM in test [10].

Turning to `CC(=O)OCC1OC(OCC2OC(N3C(=S)N[C@H]([C@@H](O)[C@H](O)[C@H](O)CO)[C@H]3O)C(OC(C)=O)C(OC(C)=O)C2OC(C)=O)C(OC(C)=O)C(OC(C)=O)C1OC(C)=O` (stereo partly specified), the TGI in test [1], in test [3], in test [4], in test [5], in [6] and in test [7] was more than 100 µM in each case. Moreover, the TGI in test [8], in test [9] and in [10] was more than 100 µM each time.
